According to ChEMBL document CHEMBL1142222, “A-803467, a potent and selective Nav1.8 sodium channel blocker, attenuates neuropathic and inflammatory pain in the rat” (Proc Natl Acad Sci U S A, 2007):

Assays:
[1] = test system: Rattus norvegicus; assay: Motor effect in rat assessed as locomotory activity at 300 mg/kg, ip; format: functional; settings: route intraperitoneal
[2] = test system: Rattus norvegicus; assay: Analgesic activity in ip dosed rat chronic constriction injury model of cold allodynic neuropathic pain; format: functional
[3] = molecular target: Alpha-2A adrenergic receptor (Homo sapiens, UniProt P08913); assay: Displacement of [3H]RX821002 from adrenergic alpha-2 receptor
[4] = Cmax in rat at 10 mg/kg, ip; format: ADME, organism-based; design: dose 10 mg/kg, route intraperitoneal; settings: in vivo
[5] = molecular target: Sodium channel protein type 10 subunit alpha (Rattus norvegicus, UniProt Q62968); assay: Inhibition of recombinant rat Nav1.8 sodium channel assessed as blockade of TTXR current by patch clamp method
[6] = test system: Rattus norvegicus; assay: Analgesic activity in ip dosed rat cyclophosphamide induced cyctitis model at 100 mg/kg, ip; format: functional; settings: route intraperitoneal
[7] = molecular target: 5-hydroxytryptamine receptor 1B (Homo sapiens, UniProt P28222); assay: Displacement of [3H]CYP from 5HT1B receptor
[8] = Oral bioavailability in rat; format: ADME, organism-based; settings: in vivo
[9] = molecular target: Sodium channel protein type 10 subunit alpha (Homo sapiens, UniProt Q9Y5Y9); assay: Inhibition of human Nav1.8 channel expressed in human HEK293 cells by patch clamp method; format: cell-based
[10] = test system: Rattus norvegicus; assay: Analgesic activity in rat colonic distension model at 100 mg/kg, ip; format: functional; settings: route intraperitoneal
[11] = test system: Rattus norvegicus; assay: Analgesic activity in rat skin incision model of post-operative pain at 100 mg/kg, ip after 2 hrs; format: functional; settings: route intraperitoneal

Chain of Alpha-2A adrenergic receptor (P08913 whole entry): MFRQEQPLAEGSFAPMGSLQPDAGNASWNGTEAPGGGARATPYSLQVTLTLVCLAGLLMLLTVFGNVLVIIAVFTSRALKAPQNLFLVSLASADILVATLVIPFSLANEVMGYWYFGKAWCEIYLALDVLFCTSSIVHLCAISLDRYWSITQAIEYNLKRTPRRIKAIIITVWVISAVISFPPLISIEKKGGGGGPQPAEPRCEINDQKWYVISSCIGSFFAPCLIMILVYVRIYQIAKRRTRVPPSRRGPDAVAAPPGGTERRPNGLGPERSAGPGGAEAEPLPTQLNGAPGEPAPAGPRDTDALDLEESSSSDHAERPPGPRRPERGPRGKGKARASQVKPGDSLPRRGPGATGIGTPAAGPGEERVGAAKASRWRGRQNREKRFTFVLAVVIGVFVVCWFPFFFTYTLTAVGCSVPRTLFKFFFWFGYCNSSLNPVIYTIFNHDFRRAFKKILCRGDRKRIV
Chain of 5-hydroxytryptamine receptor 1B (P28222 whole entry): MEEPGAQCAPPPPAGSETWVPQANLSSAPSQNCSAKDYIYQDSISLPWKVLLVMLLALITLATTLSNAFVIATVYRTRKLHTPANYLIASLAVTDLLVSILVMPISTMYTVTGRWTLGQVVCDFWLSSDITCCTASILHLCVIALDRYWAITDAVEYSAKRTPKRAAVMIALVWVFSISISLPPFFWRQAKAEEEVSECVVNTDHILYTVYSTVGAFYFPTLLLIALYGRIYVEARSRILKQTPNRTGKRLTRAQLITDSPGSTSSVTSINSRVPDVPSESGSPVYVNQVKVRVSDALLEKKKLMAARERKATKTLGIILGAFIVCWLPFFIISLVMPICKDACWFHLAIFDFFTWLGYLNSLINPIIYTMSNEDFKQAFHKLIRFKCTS
Chain of Sodium channel protein type 10 subunit alpha (Rattus norvegicus, UniProt Q62968) (Q62968 whole entry): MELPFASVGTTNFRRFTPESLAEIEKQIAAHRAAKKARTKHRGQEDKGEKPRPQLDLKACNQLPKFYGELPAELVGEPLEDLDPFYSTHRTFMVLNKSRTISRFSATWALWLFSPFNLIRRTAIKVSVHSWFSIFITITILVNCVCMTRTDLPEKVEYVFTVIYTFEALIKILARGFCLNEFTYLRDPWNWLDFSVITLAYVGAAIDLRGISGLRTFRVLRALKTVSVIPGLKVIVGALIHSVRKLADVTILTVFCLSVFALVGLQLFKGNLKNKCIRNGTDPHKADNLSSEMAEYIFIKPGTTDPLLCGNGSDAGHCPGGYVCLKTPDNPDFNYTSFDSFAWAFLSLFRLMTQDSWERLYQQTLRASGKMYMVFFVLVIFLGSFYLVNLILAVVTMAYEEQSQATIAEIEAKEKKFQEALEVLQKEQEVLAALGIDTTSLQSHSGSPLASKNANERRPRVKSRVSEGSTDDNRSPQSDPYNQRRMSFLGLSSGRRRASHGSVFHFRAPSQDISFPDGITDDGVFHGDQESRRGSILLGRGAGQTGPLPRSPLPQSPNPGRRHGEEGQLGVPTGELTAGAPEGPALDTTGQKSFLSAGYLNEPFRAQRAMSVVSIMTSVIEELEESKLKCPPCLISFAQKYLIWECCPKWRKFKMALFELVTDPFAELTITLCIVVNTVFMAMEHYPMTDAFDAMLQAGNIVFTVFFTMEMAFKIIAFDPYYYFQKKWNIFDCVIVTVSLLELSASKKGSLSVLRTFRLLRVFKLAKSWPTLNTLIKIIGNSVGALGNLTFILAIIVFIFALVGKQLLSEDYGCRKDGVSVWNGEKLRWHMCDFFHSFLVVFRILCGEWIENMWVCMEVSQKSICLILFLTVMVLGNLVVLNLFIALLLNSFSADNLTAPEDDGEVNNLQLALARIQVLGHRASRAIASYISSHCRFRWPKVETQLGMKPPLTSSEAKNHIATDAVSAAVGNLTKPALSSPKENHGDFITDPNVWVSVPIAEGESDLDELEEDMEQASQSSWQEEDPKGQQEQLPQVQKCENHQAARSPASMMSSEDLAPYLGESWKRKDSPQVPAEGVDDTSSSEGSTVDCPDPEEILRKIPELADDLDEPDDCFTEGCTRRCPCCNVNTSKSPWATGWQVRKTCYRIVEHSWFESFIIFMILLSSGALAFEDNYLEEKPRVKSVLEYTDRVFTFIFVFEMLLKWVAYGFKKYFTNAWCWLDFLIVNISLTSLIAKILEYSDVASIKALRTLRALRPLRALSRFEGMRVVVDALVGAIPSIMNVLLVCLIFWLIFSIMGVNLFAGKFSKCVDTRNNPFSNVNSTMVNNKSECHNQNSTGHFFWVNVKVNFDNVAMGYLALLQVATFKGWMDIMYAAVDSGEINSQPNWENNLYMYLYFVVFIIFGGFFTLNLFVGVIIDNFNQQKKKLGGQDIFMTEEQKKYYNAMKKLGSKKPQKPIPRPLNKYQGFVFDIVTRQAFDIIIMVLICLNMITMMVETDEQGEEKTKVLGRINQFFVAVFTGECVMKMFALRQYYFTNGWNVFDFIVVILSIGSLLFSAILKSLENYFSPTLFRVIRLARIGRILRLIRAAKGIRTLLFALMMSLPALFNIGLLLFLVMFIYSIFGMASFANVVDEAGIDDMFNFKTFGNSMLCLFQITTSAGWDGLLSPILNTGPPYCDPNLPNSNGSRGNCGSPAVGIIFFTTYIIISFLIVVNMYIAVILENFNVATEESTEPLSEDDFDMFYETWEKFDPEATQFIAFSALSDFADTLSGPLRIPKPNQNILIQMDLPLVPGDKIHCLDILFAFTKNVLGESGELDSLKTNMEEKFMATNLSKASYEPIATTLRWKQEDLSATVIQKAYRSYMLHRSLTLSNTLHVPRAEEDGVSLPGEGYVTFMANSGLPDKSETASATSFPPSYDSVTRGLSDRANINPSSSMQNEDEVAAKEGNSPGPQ
Chain of Sodium channel protein type 10 subunit alpha (Homo sapiens, UniProt Q9Y5Y9) (Q9Y5Y9 whole entry): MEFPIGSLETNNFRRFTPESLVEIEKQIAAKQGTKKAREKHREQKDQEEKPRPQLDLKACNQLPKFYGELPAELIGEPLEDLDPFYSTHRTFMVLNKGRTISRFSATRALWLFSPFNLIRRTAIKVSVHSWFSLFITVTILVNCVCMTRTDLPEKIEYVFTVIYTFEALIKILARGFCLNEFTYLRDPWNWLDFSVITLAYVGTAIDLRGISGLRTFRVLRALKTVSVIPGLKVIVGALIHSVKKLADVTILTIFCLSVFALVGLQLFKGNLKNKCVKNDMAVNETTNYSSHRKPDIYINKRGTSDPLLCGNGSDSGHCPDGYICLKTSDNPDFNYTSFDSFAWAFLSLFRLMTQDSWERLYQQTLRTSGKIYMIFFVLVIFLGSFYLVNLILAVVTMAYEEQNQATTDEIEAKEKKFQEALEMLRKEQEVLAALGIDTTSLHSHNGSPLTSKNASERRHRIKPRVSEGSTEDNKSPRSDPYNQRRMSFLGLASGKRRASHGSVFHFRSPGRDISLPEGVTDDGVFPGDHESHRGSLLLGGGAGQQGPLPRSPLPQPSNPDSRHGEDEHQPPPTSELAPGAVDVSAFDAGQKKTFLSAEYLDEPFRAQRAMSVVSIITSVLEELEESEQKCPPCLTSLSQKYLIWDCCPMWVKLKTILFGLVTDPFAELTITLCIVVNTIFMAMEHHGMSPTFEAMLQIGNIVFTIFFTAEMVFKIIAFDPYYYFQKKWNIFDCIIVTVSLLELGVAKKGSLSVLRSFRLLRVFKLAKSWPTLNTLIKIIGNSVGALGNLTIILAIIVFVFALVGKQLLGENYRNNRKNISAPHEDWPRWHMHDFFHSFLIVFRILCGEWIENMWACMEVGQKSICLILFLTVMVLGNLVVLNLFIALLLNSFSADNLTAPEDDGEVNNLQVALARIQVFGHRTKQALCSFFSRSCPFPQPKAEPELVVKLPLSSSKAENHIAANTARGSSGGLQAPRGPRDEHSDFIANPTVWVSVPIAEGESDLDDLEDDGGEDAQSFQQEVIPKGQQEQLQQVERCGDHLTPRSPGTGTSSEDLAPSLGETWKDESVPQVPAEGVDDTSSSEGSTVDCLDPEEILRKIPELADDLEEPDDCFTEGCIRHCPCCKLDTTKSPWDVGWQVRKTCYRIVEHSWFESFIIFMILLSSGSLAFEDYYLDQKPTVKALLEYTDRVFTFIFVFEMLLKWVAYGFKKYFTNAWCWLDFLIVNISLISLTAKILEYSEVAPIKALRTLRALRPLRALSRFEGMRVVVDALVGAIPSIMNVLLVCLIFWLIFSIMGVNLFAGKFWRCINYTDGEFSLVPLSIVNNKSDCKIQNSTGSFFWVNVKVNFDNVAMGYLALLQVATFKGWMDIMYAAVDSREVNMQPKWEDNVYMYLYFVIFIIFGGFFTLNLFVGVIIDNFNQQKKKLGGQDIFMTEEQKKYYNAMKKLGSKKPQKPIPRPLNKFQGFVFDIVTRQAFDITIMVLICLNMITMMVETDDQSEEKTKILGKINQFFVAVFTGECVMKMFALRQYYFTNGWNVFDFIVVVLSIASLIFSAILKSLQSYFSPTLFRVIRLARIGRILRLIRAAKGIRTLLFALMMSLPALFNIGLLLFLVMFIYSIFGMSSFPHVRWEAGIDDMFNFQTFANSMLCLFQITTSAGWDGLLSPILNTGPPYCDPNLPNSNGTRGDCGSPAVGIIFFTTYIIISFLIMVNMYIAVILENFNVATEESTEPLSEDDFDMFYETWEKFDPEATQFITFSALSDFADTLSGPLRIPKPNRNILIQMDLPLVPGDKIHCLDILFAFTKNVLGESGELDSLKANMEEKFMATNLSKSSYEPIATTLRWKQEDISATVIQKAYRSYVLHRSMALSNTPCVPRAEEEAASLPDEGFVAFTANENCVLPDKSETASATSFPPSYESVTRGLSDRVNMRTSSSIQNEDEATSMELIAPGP

IC50 [3]: > 10000 nM
Cmax [4]: 350 ng/mL
IC50 [5]: 45 nM
IC50 [7]: > 10000 nM
bioavailability [8]: 12.8%
IC50 [9]: 8 nM
Structure (SMILES): COc1cc(NC(=O)c2ccc(-c3ccc(Cl)cc3)o2)cc(OC)c1
Activity [1]: 12%
ED50 [2]: 70 mg/kg
Activity [6]: 0%
Activity [10]: 25%
Activity [11]: 14%
